From ChEMBL document CHEMBL2057173, “Synthesis and SAR studies of bicyclic amine series GPR119 agonists” (Bioorg Med Chem Lett, 2012)

Legend:
[1] = molecular target: T1, Glucose-dependent insulinotropic receptor (Homo sapiens, UniProt Q8TDV5); assay: Agonist activity at human GPR119 receptor expressed in CHO-K1 cells assessed as cAMP accumulation after 30 mins by HTRF assay; type: functional, cell-based
T1 sequence (Q8TDV5 whole entry): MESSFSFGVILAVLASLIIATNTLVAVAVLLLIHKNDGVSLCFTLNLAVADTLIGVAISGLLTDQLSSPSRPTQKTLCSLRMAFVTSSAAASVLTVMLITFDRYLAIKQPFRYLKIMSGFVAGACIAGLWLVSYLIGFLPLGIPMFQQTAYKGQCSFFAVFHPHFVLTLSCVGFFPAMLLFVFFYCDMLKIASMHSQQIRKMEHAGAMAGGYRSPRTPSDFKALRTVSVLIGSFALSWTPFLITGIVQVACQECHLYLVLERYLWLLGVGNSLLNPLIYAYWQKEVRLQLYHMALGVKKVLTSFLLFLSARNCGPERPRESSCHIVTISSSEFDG

[2] = molecular target: T2, Glucose-dependent insulinotropic receptor (Mus musculus) (UniProt Q7TQP3); assay: Agonist activity at mouse GPR119 receptor expressed in CHO-K1 cells assessed as cAMP accumulation after 30 mins by HTRF assay relative to AR231453; type: functional, cell-based
T2 sequence (whole entry): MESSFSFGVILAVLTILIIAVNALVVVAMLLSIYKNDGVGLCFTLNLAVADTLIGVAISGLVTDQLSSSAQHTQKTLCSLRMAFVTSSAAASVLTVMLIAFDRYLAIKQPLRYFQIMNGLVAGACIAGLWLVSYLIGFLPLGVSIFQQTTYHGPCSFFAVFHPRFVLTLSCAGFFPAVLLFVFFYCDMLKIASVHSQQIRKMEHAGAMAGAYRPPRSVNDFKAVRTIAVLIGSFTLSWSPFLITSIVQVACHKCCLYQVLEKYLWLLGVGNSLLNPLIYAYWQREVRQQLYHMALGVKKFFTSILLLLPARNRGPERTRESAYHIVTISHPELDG

[3] = molecular target: T3, Glucose-dependent insulinotropic receptor (Homo sapiens) (UniProt Q8TDV5); assay: Agonist activity at human GPR119 receptor expressed in CHO-K1 cells assessed as cAMP accumulation after 30 mins by HTRF assay relative to AR231453; type: functional, cell-based
T3 sequence (whole entry): T1 sequence (Q8TDV5 whole entry)

[4] = molecular target: T4, Glucose-dependent insulinotropic receptor (Mus musculus, UniProt Q7TQP3); assay: Agonist activity at mouse GPR119 receptor expressed in CHO-K1 cells assessed as cAMP accumulation after 30 mins by HTRF assay; type: functional, cell-based
T4 sequence (Q7TQP3 whole entry): T2 sequence (whole entry)

[5] = molecular target: T3, Glucose-dependent insulinotropic receptor (Homo sapiens); assay: Agonist activity at human GPR119 receptor expressed in CHO-K1 cells assessed as cAMP accumulation at 1 uM after 30 mins by HTRF assay; type: functional, cell-based
[6] = molecular target: T3, Glucose-dependent insulinotropic receptor (Homo sapiens); assay: Agonist activity at human GPR119 receptor expressed in CHO-K1 cells assessed as cAMP accumulation at 10 uM after 30 mins by HTRF assay; type: functional, cell-based
Mus musculus [7] = assay: Antidiabetic activity in po dosed fasted C57BL/6j mouse assessed as decrease in glucose excursion administered 30 mins prior to oral glucose-challenge by oral glucose tolerance test; type: functional, organism-based
Mus musculus [8] = assay: Antidiabetic activity in fasted C57BL/6j mouse assessed as decrease in glucose excursion at 10 mg/kg, po administered 30 mins prior to oral glucose-challenge measured after 120 mins by oral glucose tolerance test; type: functional; set-up: scale not given: the % may be the effect or the level left
Mus musculus [9] = assay: Antidiabetic activity in fasted C57BL/6j mouse assessed as decrease in glucose excursion at 3 mg/kg, po administered 30 mins prior to oral glucose-challenge measured after 120 mins by oral glucose tolerance test; type: functional; set-up: scale not given: the % may be the effect or the level left
Mus musculus [10] = assay: Antidiabetic activity in fasted C57BL/6j mouse assessed as increase in plasma GLP-1 level at 30 mg/kg, po after 30 mins by ELISA relative to control; type: functional
Mus musculus [11] = assay: Antidiabetic activity in fasted C57BL/6j mouse assessed as decrease in glucose excursion at 10 mg/kg, po administered 30 mins prior to subcutaneous glucose-challenge after 120 mins by subcutaneous glucose tolerance test; type: functional; set-up: scale not given: the % may be the effect or the level left

| SMILES | EC50 [1] | Emax [2] | Emax [3] | EC50 [4] | also measured |
| --- | --- | --- | --- | --- | --- |
| CC(C)(C)OC(=O)N1CCC(CCCNc2ccc3c(c2)CCC3=O)CC1 | 86 nM | 105% | 85% | 87 nM | – |
| CC(C)(C)OC(=O)N1CCC(CCCNc2ccc3c(c2)C(=O)CC3)CC1 | 46 nM | 110% | 98% | 123 nM | – |
| CC(C)c1noc(N2CCC(CCCNc3ccc4c(c3)C(=O)CC4)CC2)n1 | 58 nM | 113% | 110% | 158 nM | – |
| CC(C)(C)OC(=O)N1CCC(CCCNc2ccc3c(c2)C(=O)CO3)CC1 | 88 nM | 116% | 95% | 262 nM | – |
| CC(C)(C)OC(=O)N1CCC(OCCNc2ccc3c(c2)CCS3(=O)=O)CC1 | – | – | 33% | – | Activity [5]: 33% |
| COC(=O)c1cnc(N2CCC(CCCNc3ccc4c(c3)OCC4=O)CC2)nc1 | 149 nM | 67% | 85% | 139 nM | – |
| CC(C)c1nnc(N2CCC(CCCNc3ccc4c(c3)OCC4=O)CC2)o1 | 704 nM | 88% | 85% | 1020 nM | – |
| CC(C)(C)OC(=O)N1CCC(CCCOc2ccc3c(c2)CCS3(=O)=O)CC1 | 736 nM | – | 84% | – | – |
| CC(C)(C)OC(=O)N1CCC(CCCNc2ccc3c(c2)CCS3(=O)=O)CC1 | 270 nM | 83% | 80% | 224 nM | – |
| CC(C)c1nsc(N2CCC(CCCNc3ccc4c(c3)OCC4=O)CC2)n1 | 121 nM | 93% | 10% | 812 nM | – |
| CCc1cnc(N2CCC(CCCNc3ccc4c(c3)OCC4=O)CC2)nc1 | 117 nM | 98% | 115% | 159 nM | – |
| CN(CCNc1ccc2c(c1)CCS2(=O)=O)C1CCN(C(=O)OC(C)(C)C)CC1 | – | – | 10% | – | Activity [6]: 10% |
| CC(C)(C)OC(=O)N1CCC(CCCNc2ccc3c(c2)CCCCC3=O)CC1 | 770 nM | – | 38% | – | – |
| CC(C)(C)OC(=O)N1CCC(CCCCCNc2ccc3c(c2)CCS3(=O)=O)CC1 | 145 nM | – | 65% | – | – |
| CC(C)(C)OC(=O)N1CCC(CCCNc2ccc3c(c2)OCS3(=O)=O)CC1 | 254 nM | 105% | 93% | 266 nM | – |
| CC(C)c1noc(N2CCC(CCCNc3ccc4c(c3)OCC4=O)CC2)n1 | 73 nM | – | 94% | – | – |
| CC(C)(C)OC(=O)N1CCC(CCCNc2ccc3c(c2)S(=O)(=O)CC3)CC1 | 1030 nM | – | 25% | – | – |
| CC(C)(C)OC(=O)N1CCC(CCCNc2ccc3c(c2)NNS3(=O)=O)CC1 | 268 nM | 95% | 99% | 331 nM | – |
| CC(C)(C)OC(=O)N1CCC(CCCCNc2ccc3c(c2)CCS3(=O)=O)CC1 | 210 nM | – | 62% | – | – |
| COc1cnc(N2CCC(CCCNc3ccc4c(c3)OCC4=O)CC2)nc1 | 115 nM | 106% | 101% | 60 nM | – |
| CC(C)(C)OC(=O)N1CCC(CCCNc2ccc3c(c2)C(=O)CCO3)CC1 | 272 nM | 108% | 100% | 351 nM | – |
| CC(C)c1nc(N2CCC(CCCNc3ccc4c(c3)OCC4=O)CC2)no1 | 161 nM | – | 91% | – | – |
| CC(C)(C)OC(=O)N1CCC(CCCC(=O)Nc2ccc3c(c2)CCS3(=O)=O)CC1 | 2610 nM | – | 56% | – | – |
| CC(C)(C)OC(=O)N1CCC(CCCNc2ccc3c(c2)CNC3=O)CC1 | 550 nM | 102% | 91% | 515 nM | – |
| CC(C)(C)OC(=O)N1CCC(CCCNc2ccc3c(c2)C(=O)NC3)CC1 | 734 nM | 97% | 89% | 892 nM | – |
| CC(C)(C)OC(=O)N1CCC(CCCNc2ccc3c(c2)OCC3=O)CC1 | 52 nM | 108% | 94% | 66 nM | – |
| CC(C)(C)OC(=O)N1CCC(CCCNc2ccc3c(c2)OCCS3(=O)=O)CC1 | 511 nM | – | 81% | – | – |
| CCc1cnc(N2CCC(CCCNc3ccc4c(c3)C(=O)CC4)CC2)nc1 | 51 nM | 110% | 113% | 167 nM | Activity (Mus musculus [7]): Dose-dependent effect; Activity (Mus musculus [8]): 38%; Activity (Mus musculus [9]): 29%; fold change (FC) (Mus musculus [10]): >2; Activity (Mus musculus [11]): 32% |
